Activity calls are given as the source filed them. The calls are words filed in the database; no cut-off is given here.
How the values were obtained:
Ascochyta rabiei [1] = experiment: Antifungal activity against Didymella rabiei in chickpea plant assessed as dry grain yield at 50 ppm compound single spray 15 intervals (Control = 0.268 t/ha); type: functional
Ascochyta rabiei [2] = experiment: Antifungal activity against Didymella rabiei in chickpea plant assessed as chickpea blight disease severity at 50 ppm compound three sprays 15 intervals (Control = 45.8%); type: functional
Ascochyta rabiei [3] = experiment: Antifungal activity against Didymella rabiei in chickpea plant assessed as dry grain yield at 50 ppm compound three sprays 15 intervals (Control = 0.268 t/ha); type: functional
Ascochyta rabiei [4] = experiment: Antifungal activity against Didymella rabiei inoculated in chickpea plant assessed as reduction in chickpea blight disease at 100 ppm compound single spray 24 hr before inoculation by green house experiment; type: functional
Ascochyta rabiei [5] = experiment: Antifungal activity against Didymella rabiei in chickpea plant assessed as dry grain yield at 50 ppm compound two sprays 15 intervals (Control = 0.268 t/ha); type: functional
Ascochyta rabiei [6] = experiment: Antifungal activity against Didymella rabiei isolate ARL1 inoculated in chickpea seedlings assessed as reduction in chickpea blight disease at 100 ppm compound treated 24 hr prior seedlings by green house experiment; type: functional, organism-based
Ascochyta rabiei [7] = experiment: Antifungal activity against Didymella rabiei in chickpea plant assessed as dry grain yield at 50 ppm compound treated by seeds soaking for 24 hr (Control = 0.268 t/ha); type: functional
Ascochyta rabiei [8] = experiment: Antifungal activity against Didymella rabiei in chickpea plant assessed as chickpea blight disease severity at 50 ppm compound single spray 15 intervals (Control = 45.8%); type: functional
Ascochyta rabiei [9] = experiment: Antifungal activity against Didymella rabiei in chickpea plant assessed as chickpea blight disease severity at 50 ppm compound two sprays 15 intervals (Control = 45.8%); type: functional
Ascochyta rabiei [10] = experiment: Antifungal activity against Didymella rabiei inoculated in chickpea plant assessed as reduction in chickpea blight disease at 100 ppm compound single spray 96 or 120 hr before inoculation by green house experiment; type: functional, organism-based
Ascochyta rabiei [11] = experiment: Antifungal activity against Didymella rabiei inoculated in chickpea plant assessed as reduction in chickpea blight disease at 100 ppm compound single spray 24 to 72 hr before inoculation by green house experiment; type: functional, organism-based
Ascochyta rabiei [12] = experiment: Antifungal activity against Didymella rabiei in chickpea plant assessed as chickpea blight disease severity at 50 ppm compound treated by seeds soaking for 24 hr (Control = 45.8%); type: functional

**Q.** What does the source list for `CSC(=O)c1cccc2nnsc12` [ACIBENZOLAR-S-METHYL]?
**A.** Crop_yield (Ascochyta rabiei [1]): 0.52 tons/ha; Activity (Ascochyta rabiei [2]): 4.2%; Crop_yield (Ascochyta rabiei [3]): 0.922 tons/ha; inhibition at 100 ppm (Ascochyta rabiei [4]): 72.4%; Crop_yield (Ascochyta rabiei [5]): 1.066 tons/ha; inhibition (Ascochyta rabiei [6]): Active; Crop_yield (Ascochyta rabiei [7]): 0.456 tons/ha; Activity (Ascochyta rabiei [8]): 17.5%; Activity (Ascochyta rabiei [9]): 7.5%; inhibition (Ascochyta rabiei [10]): inactive; inhibition (Ascochyta rabiei [11]): Active; Activity (Ascochyta rabiei [12]): 22.5%

Source: ChEMBL document CHEMBL3045545, “Control of chickpea blight disease caused by Didymella rabiei by mixing resistance inducer and contact fungicide” (2011)
